From ChEMBL document CHEMBL4418488, “Compounds and methods of treating ocular disorders” (2017)
Active and inactive are the calls of the source. The calls are words filed in the database; no cut-off is given here.

Tests used:
[1] = Toxicity in 4 weeks old Abca4(-/-)/Rdh8 (-/-) mouse model of intense light-induced retinal degeneration at 1 mg dosed via gavage under dark for 24 hrs before exposure to 10000 lux bright light for 1 hr by SDOCT and ERG analysis; assay type: organism-based; conditions: in vivo, po
Mus musculus [2] = assay: Protective effect against intense light-induced retinal degeneration in 4 weeks old Abca4(-/-)/Rdh8 (-/-) mouse assessed as effect on thickness of outer nuclear layer at 1 mg dosed via gavage under dark for 24 hrs before exposure to 10000 lux bright light for 1 hr by SDOCT and ERG analysis; assay type: functional, organism-based
Mus musculus [3] = assay: Protective effect against intense light-induced retinal degeneration in wild type mouse assessed as rate of visual chromophore recovery by measuring 11-cis- retinal level in eye at 0.2 mg pretreated with compound followed by exposure to light illumination 7 days after compound dosing (reference value: 85 +/- 5%) by HPLC analysis; assay type: functional, organism-based
Mus musculus [4] = assay: Protective effect against intense light-induced retinal degeneration in 4 weeks old Abca4(-/-)/Rdh8 (-/-) mouse at 0.1 mg dosed via gavage under dark for 24 hrs before exposure to 10000 lux bright light for 1 hr followed by exposure to dark for 3 days by ERG analysis; assay type: functional, organism-based
Mus musculus [5] = assay: Protective effect against intense light-induced retinal degeneration in 4 weeks old Abca4(-/-)/Rdh8 (-/-) mouse at 0.1 mg dosed via gavage under dark for 24 hrs before exposure to 10000 lux bright light for 1 hr followed by exposure to dark for 3 days by OCT analysis; assay type: functional, organism-based
Mus musculus [6] = assay: Protective effect against intense light-induced retinal degeneration in 4 weeks old Abca4(-/-)/Rdh8 (-/-) mouse at 0.2 mg dosed via gavage under dark for 24 hrs before exposure to 10000 lux bright light for 1 hr followed by exposure to dark for 3 days by ERG analysis; assay type: functional, organism-based
Mus musculus [7] = assay: Protective effect against intense light-induced retinal degeneration in 4 weeks old Abca4(-/-)/Rdh8 (-/-) mouse at 0.5 mg dosed via gavage under dark for 24 hrs before exposure to 10000 lux bright light for 1 hr followed by exposure to dark for 3 days by ERG analysis; assay type: functional, organism-based
Mus musculus [8] = assay: Protective effect against intense light-induced retinal degeneration in 4 weeks old Abca4(-/-)/Rdh8 (-/-) mouse assessed as inhibition of rate of visual chromophore recovery by measuring 11-cis- retinal level in eye at 0.1 mg dosed via gavage under dark for 24 hrs before exposure to 10000 lux bright light for 1 hr by HPLC analysis relative to control; assay type: functional
[9] = Drug metabolism in 4 weeks old Abca4(-/-)/Rdh8 (-/-) mouse model of intense light-induced retinal degeneration assessed as accumulation of intense amide peaks in liver at 1 mg dosed via gavage under dark for 24 hrs before exposure to 10000 lux bright light for 1 hr […]; assay type: ADME, organism-based; conditions: in vivo, po
Mus musculus [10] = assay: Protective effect against intense light-induced retinal degeneration in 4 weeks old Abca4(-/-)/Rdh8 (-/-) mouse assessed as 11-cis retinal levels at 1 mg dosed via gavage under dark for 24 hrs before exposure to 10000 lux bright light for 1 hr by HPLC analysis; assay type: functional

Row | Compound | Activity [1] | Activity (Mus musculus [2]) | also measured
1 | CC1=C(/C=C/C(=C/C=C/C(C)=C/CN)C(C)(C)C)CCCC1 | Non-Toxic | inactive | –
2 | CC1=C(/C=C/C(=C/C=C/C(C)=C/CN)C(C)(C)C)C(C)(C)CCC1 | Non-Toxic | inactive | –
3 | CC(/C=C/C1=CCCCC1)=C\C=C\C(C)=C\CN | Non-Toxic | inactive | –
4 | CC(C)(C)C(=C\C=C\CN)/C=C/C1=CCCCC1 | Toxic | inactive | –
5 | COc1ccc(C(=C\C=C\C(C)=C\CN)/C=C/c2ccc(O)cc2)cc1 | Non-Toxic | inactive | –
6 | CC1=C(/C=C/C=C/C=C/C=C/CN)C(C)(C)CCC1 | Non-Toxic | Active | –
7 | CC1=C(/C=C/C(C)=C/C=C/C(C)=C/CN)C(C)(C)CCC1 | Non-Toxic | Active | Activity (Mus musculus [3]): inactive; Activity (Mus musculus [4]): inactive; Activity (Mus musculus [5]): inactive; Activity (Mus musculus [6]): Active; Activity (Mus musculus [7]): Active; inhibition (INH) (Mus musculus [8]): 40%
8 | CC(/C=C/C=C(/C=C/c1ccc(C(F)(F)F)cc1)c1ccccc1)=C\CN | Toxic | inactive | –
9 | CC(/C=C/C=C(/c1ccc2ccccc2c1)C(C)(C)C)=C\CN | Toxic | Active | Drug metabolism [9]: Metabolite_Detected; Activity (Mus musculus [10]): 50%
10 | CC(/C=C/C=C(/C=C/C1=CCCCC1)C(C)(C)C)=C\CN | Toxic | Active | Drug metabolism [9]: Metabolite_Detected; Activity (Mus musculus [10]): 50%
11 | COc1ccc(C(=C\C=C\C(C)=C\CN)/C=C/C2=CCCCC2)cc1 | Non-Toxic | inactive | –
12 | CC(/C=C/C=C(/C=C/c1ccccc1)C(C)(C)C)=C\CN | Toxic | Active | Drug metabolism [9]: Metabolite_Detected
